From patent US20230250070A1, “DIHYDROOXAZOLE AND THIOUREA DERIVATIVES MODULATING THE NLRP3 INFLAMMASOME PATHWAY” (AC IMMUNE SA, priority 2020, published 2023)

Each compound was assayed on NLRP3 inflammasome pathway (assay: NLRP3 inflammasome pathway activation assay, MSU stimulation, IL-1β release (AlphaLISA)). Settings: PMA-differentiated, LPS-primed human monocyte-like cells, MSU 150 µg/ml for 3 h.
Type: cell-based
Procedure: The following assays were used to determine the inhibitory activity of test compounds on the NLRP3 inflammasome pathway using common stimuli Nigericin (Invivogen) or monosodium urate crystals (MSU) (Invivogen).
Human monocyte-like cells were cultured in RPMI-1640 Glutamax medium supplemented with 10% heat inactivated FCS and 50 U/ml penicillin-streptomycin (Life Technologies).
Human monocyte-like cells were seeded at 75000 per well in a 96-well plate and were differentiated overnight into macrophages with 10 ng/ml PMA (Phorbol Myristate Acetate). The following day, medium containing 10 ng/ml LPS (Lipopolysaccharide) were added. After 3 hours of LPS priming, concentrations of test compound in the range from 100 µM to 6 nM were added 30 min prior to NLRP3 inflammasome pathway stimulation with Nigericin 3.75 µM or MSU 150 µg/ml for 3 h.
For IL-1β quantification, supernatants were analyzed using AlphaLISA kits according to the manufacturer’s instructions (Perkin Elmer AlphaLISA AL220F). Briefly, in a 384-well OptiPlate™ microplate, 5 µl of sample was mixed, with 20 µl of AlphaLISA Anti-Analyte Acceptor beads (10 µg/mL final) and Biotinylated Antibody Anti-Analyte (1 nM final). Then, incubated 60 minutes at RT, then 25 µL of 2X SA-Donor beads (40 µg/mL final) were added and incubated 30 minutes at RT in the dark. Reading was done using an EnVision-Alpha Reader (PerkinElmer).
IC50(concentration corresponding to 50% inhibition) were determined using GraphPad Prism 8.

SMILES | IC50
CCOC(=O)C1(c2ccno2)CN=C(Nc2c3c(cc4c2CCC4)CCC3)O1 (racemic) [Example 44, ethyl 2-((1,2,3,5,6,7-hexahydro-s-indacen-4-yl)amino)-5-(isoxazol-5-yl)-4,5-dihydrooxazole-5-carboxylate] | < 1000 nM
CCCCCOC(=O)C1(c2ccno2)CN=C(Nc2c3c(cc4c2CCC4)CCC3)O1 (racemic) [Example 92, pentyl 2-((1,2,3,5,6,7-hexahydro-s-indacen-4-yl)amino)-5-(isoxazol-5-yl)-4,5-dihydrooxazole-5-carboxylate] | < 1000 nM
O=C(O)C1(c2cccnc2)CN=C(Nc2c3c(cc4c2CCC4)CCC3)O1 (stereo not shown) [Example 26, 2-((1,2,3,5,6,7-hexahydro-s-indacen-4-yl)amino)-5-(pyridin-3-yl)-4,5-dihydrooxazole-5-carboxylic acid] | 1000 to 10000 nM
CCOC(=O)C1(c2nccs2)CN=C(Nc2c3c(cc4c2CCC4)CCC3)O1 (single isomer, unassigned) [Example 21, ethyl 2-((1,2,3,5,6,7-hexahydro-s-indacen-4-yl)amino)-5-(thiazol-2-yl)-4,5-dihydrooxazole-5-carboxylate] | < 1000 nM
O=C(OC1CCCC1)C1(c2ccon2)CN=C(Nc2c3c(cc4c2CCC4)CCC3)O1 (stereo not shown) [Example 57, Cyclopentyl 2-((1,2,3,5,6,7-hexahvdro-s-indacen-4-vl)amino)-5-(isoxazol-3-vl)-4,5-dihvdrooxazole-5-carboxylate] | < 1000 nM
CCOC(=O)C1(c2nc(C(C)C)cs2)CN=C(Nc2c3c(cc4c2CCC4)CCC3)O1 (racemic) [Example 55, ethyl 2-((1,2,3,5,6,7-hexahydro-s-indacen-4-yl)amino)-5-(4-isopropylthiazol-2-yl)-4,5-dihydrooxazole-5-carboxylate] | < 1000 nM
CC(C)(C)OC(=O)C1(c2ccon2)CN=C(Nc2c3c(cc4c2CCC4)CCC3)O1 (racemic) [Example 60, tert-butyl 2-((1,2,3,5,6,7-hexahydro-s-indacen-4-yl)amino)-5-(isoxazol-3-yl)-4,5-dihydrooxazole-5-carboxylate] | < 1000 nM
O=C(O)C1(c2ccccn2)CN=C(Nc2c3c(cc4c2CCC4)CCC3)O1 (stereo not shown) [Example 25, 2-((1,2,3,5,6,7-hexahydro-s-indacen-4-yl)amino)-5-(pyridin-2-yl)-4,5-dihydrooxazole-5-carboxylic acid] | 1000 to 10000 nM
CC(C)(C)OC(=O)C1(c2cc(C(C)(C)O)on2)CN=C(Nc2c3c(cc4c2CCC4)CCC3)O1 (racemic) [Example 82, tert-butyl 2-((1,2,3,5,6,7-hexahydro-s-indacen-4-yl)amino)-5-(5-(2-hydroxypropan-2-yl)isoxazol-3-yl)-4,5-dihydrooxazole-5-carboxylate] | < 1000 nM
CCCOC(=O)C1(c2nccs2)CN=C(Nc2c3c(cc4c2CCC4)CCC3)O1 (racemic) [Example 65, propyl 2-((1,2,3,5,6,7-hexahydro-s-indacen-4-yl)amino)-5-(thiazol-2-yl)-4,5-dihydrooxazole-5-carboxylate] | < 1000 nM
CC(C)(O)c1cc(C2(C(=O)OC3CCCC3)CN=C(Nc3c4c(cc5c3CCC5)CCC4)O2)no1 (racemic) [Example 19, cyclopentyl 2-((1,2,3,5,6,7-hexahydro-s-indacen-4-yl)amino)-5-(5-(2-hydroxypropan-2-yl)isoxazol-3-yl)-4,5-dihydrooxazole-5-carboxylate] | < 1000 nM
CC(C)OC(=O)C1(c2cc(C(C)(C)O)on2)CN=C(Nc2c3c(cc4c2CCC4)CCC3)O1 (racemic) [Example 17, isopropyl 2-((1,2,3,5,6,7-hexahydro-s-indacen-4-yl)amino)-5-(5-(2-hydroxypropan-2-yl)isoxazol-3-yl)-4,5-dihydrooxazole-5-carboxylate] | < 1000 nM
CCOC(=O)C1(c2cc(C(C)(C)O)on2)OC(Nc2c3c(cc4c2CCC4)CCC3)=NC1CC (stereo not shown) [Example 51, ethyl 4-ethyl-2-((1,2,3,5,6,7-hexahydro-s-indacen-4-yl)amino)-5-(5-(2-hydroxypropan-2-yl)isoxazol-3-yl)-4,5-dihydrooxazole-5-carboxylate] | 1000 to 10000 nM
